Test results taken from paper PMC6005341, “Identification of “sarsasapogenin-aglyconed” timosaponins as novel Aβ-lowering modulators of amyloid precursor protein processing” (Chemical Science, 2016).

Tests used:
[1] = test system: Aβ42 production in N2A-APPswe cells; assay: Aβ42 in conditioned medium of N2A-APPswe cells by ELISA, 18 h treatment; format: cell-based; conditions: for decrease in Aβ42 / Aβ42-lowering effect (in words): N2A-APPswe cells; for decrease in Aβ42: 18 h; for IC50: N2a-APPswe, read-out: IC50 in lowering Aβ42 production, N2A-APPswe cells, mean ± standard deviation, n ≥ 3
Text: Sigma-Aldrich Chemical Co. unless otherwise specified. SSG (1) was purchased from Wako Pure Chemical Industries, Ltd. Diosgenin (6), Dioscin (9), Polyphyllin D (10), Timosaponin BI (22) and Timosaponin BII (23) were purchased from Chengdu Must Bio-Technology Co.
Ltd. Yamogenin (7) was bought from Ambinter c/o Greenpharma while Smilagenin (24) was bought from Steraloids Inc. Substances dissolved in DMSO as stock solutions. Cell culture medium constituents were purchased from Life Technologies, Inc.
Cell culture: Neuro-2A cells expressing Swedish mutants of APP (N2A-APPswe provided by Prof. Yifan Han, The Hong Kong Polytechnic University)1 was cultured in minimal essential medium with 2 mM glutamine, 2 mM pyruvate and 10% fetal bovine serum. […]
Aβ ELISA: Aβ concentrations in conditioned medium were assayed using ELISA kits for […]

[2] = Plasma and brain concentrations by LC-MS/MS; format: in vivo, mice; conditions: for Plasma Precursor: mice n = 6, three repeated oral doses 100 mg/kg in two days
Description: Animal experiments: Male C57BL/6N mice were housed in environmentally controlled room (temperature: 25 ± 2 °C, humidity: 50 ± 5%, 12-h light-dark cycle) in Laboratory Animal Unit, The University of Hong Kong and were freely access to food and water. TAIII, TAI SSG and compound 34 were dissolved in 5% Tween 80 and given to the mice by oral gavage at three repeated doses of 100 mg/kg in 48 hours. Mice were administrated with 5% Tween 80 (control group), TAIII, TAI SSG and 34. The experimental procedures were performed with the approval of Committee of Use of Live Animal for Teaching and Research of The University of Hong Kong. Blood (about 600-800 µL) was collected by cardiac puncture and added with 1/10 volume of Na2EDTA (20 mg/mL) to prevent coagulation. After centrifugation at 3000 g for 15 min at 4 °C, plasma was transferred to a centrifuge tube. The brain was dissected into two hemispheres on ice, weighed and frozen in liquid nitrogen immediately. The left brain was homogenized with 1 mL of buffer containing 5 M guanidine HCl, 50 mM Tris HCl, pH 8.0, with protease inhibitor cocktail and AEBSF using a Polytron and the homogenates were allowed to stand at room temperature for 3h. Both plasma and brain samples were stored at -80 °C until they were analyzed. […]
B. Determination of timosaponin levels in mice plasma and brain by ultra-high pressure liquid chromatography tandem mass spectrometry
The UPLC-ESI-QTOF consists of a Waters Q-TOF PremierTM mass spectrometer (Micromass MS Technologies, Manchester, UK) operated in positive ion mode and a Waters ACQUITY TM UPLC system. The mass spectrometer conditions were optimized as follows: source […]
temperature, 120 °C; desolvation temperature, 500 °C; nebulization gas flow rate, 1000 L/h; cone gas flow rate, 20 L/h; capillary voltage, 2.5 kV; sampling cone voltage, 28V. The data were collected into two separate data channels with the instrument spending 0.5 s on data acquisition for each channel and a 0.1 s inter-channel delay. The mass spectrometer was calibrated by using the solution of sodium formate (0.5 mM) and the TOF scan range was from 100 to 1000 Da. In order to improve mass measurement accuracy a lock mass compound (50 pg µL−1 solution of leucine encephalin; m/z 556.2771) was continuously infused at a 0.5 mL min-1 using the built-in syringe pump of the instrument.
Sample was loaded into a Waters ACQUITY TM BEH C18 column (100 × 2.1 mm i.d., 1.7 µM) connected to a Waters ACQUITY TM BEH C18 guard column (5 × 2.1 mm i.d., 1.7 µM). The gradient elution system consisted of 0.1% formic acid in water (A) and 0.1% formic acid in acetonitrile (B). Separation was achieved by using: 30%-55% B from 0 to 3 min; 55-100% B from 3 to 6 min; 100% B from 6 to 12 min and returned to initial conditions and equilibrated for 3 minutes. The flow rate was 0.3 mL/min and the injection volume was 5 µL.
Standard preparation and sample preparation
Stock solution (10 µM ) of each analyte was prepared by dissolving in methanol. They were subject to serial dilution to give calibration curves of SSG 1 (plasma: y = 8.7485× - 0.0676; […]
each concentration of each analyte was transferred to a centrifuge tube and evaporated to dryness by a concentrator. Dioscin (20 µL , 10 µM) was added as an internal standard followed by methanol (130 µL) and control plasma (50 µL). The mixture was vortexed for 5 s and centrifuged (15000 × g) for 15 min. The supernatant was collected and evaporated to dryness by a concentrator. Methanol (100 µL) was added and then vortexed again for 10 s and centrifuged (15000 × g) for 20 min. The supernatant (5 µL) was subject to LC-MS/MS analysis. Analyte-treated plasma, control brain and analyte-treated brain were prepared in a […]
The acquisition and processing of data were performed by Masslynx (version 4.1) software.
Mass window of ±10 mDa and mass resolution of 9000 were set for both molecular ions and product ions. MS full scan was applied to acquire high abundant molecular ions [M+H]+ with […]

[3] = any metabolite, mice n = 6, three oral doses 100 mg/kg in two days
[4] = mice n = 6, three oral doses 100 mg/kg in two days

| SMILES | decrease in Aβ42 ([1]; 50 μM) [%] | decrease in Aβ42 ([1]; 100 μM) [%] | IC50 [1] [µM] | Brain Metabolite [2, 3] | Plasma Metabolite [2, 3] | Brain Precursor [2, 4] | Plasma Precursor [2] [µM] | Aβ42-lowering effect (in words) [1] |
| --- | --- | --- | --- | --- | --- | --- | --- | --- |
| C[C@H]1CC[C@@]2(OC1)O[C@H]1C[C@H]3[C@@H]4CC[C@@H]5C[C@@H](O)CC[C@]5(C)[C@H]4CC[C@]3(C)[C@H]1[C@@H]2C [SSG (1), sarsasapogenin] | 55 | 40 | 53 ± 9 | Not detected | Not detected | 1.042 ± 0.418 µM | 0.118 ± 0.062 | – |
| C[C@H]1CC[C@@]2(OC1)O[C@H]1C[C@H]3[C@@H]4CC[C@@H]5C[C@@H](O[C@@H]6O[C@H](CO)[C@H](O)[C@H](O)[C@H]6O)CC[C@]5(C)[C@H]4CC[C@]3(C)[C@H]1[C@@H]2C [TAI (3), timosaponin A I] | – | – | ~6.1 | – | – | 1.174 ± 0.401 µM | 3.361 ± 0.925 | effectively lowered |
| C[C@H]1CC[C@@]2(OC1)O[C@H]1C[C@H]3[C@@H]4CC[C@@H]5C[C@@H](O[C@@H]6O[C@H](CO)[C@H](O)[C@H](O)[C@H]6O[C@@H]6O[C@H](CO)[C@@H](O)[C@H](O)[C@H]6O)CC[C@]5(C)[C@H]4CC[C@]3(C)[C@H]1[C@@H]2C [TAIII (2), timosaponin A III] | – | – | ~2.3 | – | – | Not detected | 0.050 ± 0.058 | effectively lowered |
